Measured values: patent US6403645B2, “Antidepressant effect of norepinephrine uptake 2 inhibitors and combined medications including them” (President and Fellows of Harvard College, priority 2000, dated 2002)

Test: Urinary levels of norepinephrine and normetanephrine in depressed patients treated with desipramine
Assay type: in vivo
From the text: (Plasma levels of normetanephrine were not measured in these studies.)

[1] = by the fourth week of treatment

CNCCCN1c2ccccc2CCc2ccccc21 [desipramine]
urinary levels of norepinephrine (after one week of treatment): small decreases
urinary levels of normetanephrine (after one week of treatment): small decreases
urinary levels of norepinephrine [1]: statistically significant increases
urinary levels of normetanephrine [1]: statistically significant increases
